From US20040137085A1, “Treatment of HIV infection with humic acid” (priority 1993, published 2004)

Legend:
human PBL = assay: Proliferation of human PBL; assay type: cell-based; parameters: unit not given here
Description: (§1) The effect on IL-2 production by AVC was not due to a direct proliferative effect on PBL in culture (Table IV) nor did it have a direct effect on IL-2 production by Jurkat or LBRM-33 T lymphoma cells (Table V).

Jurkat cells = assay: Production of IL-2 by Jurkat T lymphoma cells; assay type: cell-based, human
Description: (§2) Typically, peripheral blood lymphocytes (PBL) from normal donors are incubated (2×10^6 cells/ml) in RPMI-1640 medium supplemented with 4 mM glutamine, 0.1 mM nonessential amino acids, 1 mM sodium pyruvate, 10 mM HEPES and 10% FCS and containing either Con A (5 μg/ml) or PHA (10 μg/ml) as the mitogen. AVC was added at the initiation of the culture at the dose of 12 μg/ml. The cultures were then incubated in a 5% CO2 atmosphere. Culture supernatants were collected on day 2, 3 and 4 and tested for the content (Units/ml) of IL-2 using a biological assay consisting in measuring the proliferative response of murine CTLL-2 T cells whose growth in culture is strictly dependent on the presence of IL-2 in the medium. The proliferative response (^3H-Thymidine incorporation) of CTLL-2 cells was plotted on a reference curve constructed with a standard amount of IL-2 and the experimental values calculated accordingly.
as §1

LBRM-33 Cells = assay: Production of IL-2 by LBRM-33 T lymphoma cells; assay type: cell-based
Description: as §2, §1

concanavalin A [Con A]
Proliferation of human PBL (human PBL; Experiment 1, 24 Hours): 3,772
Proliferation of human PBL (human PBL; Experiment 1, 48 Hours): 37,839
Proliferation of human PBL (human PBL; Experiment 1, 72 Hours): 42,357
Proliferation of human PBL (human PBL; Experiment 2, 24 Hours): 182
Proliferation of human PBL (human PBL; Experiment 2, 48 Hours): 23,767
Production of IL-2 (Jurkat cells; 24 Hours): 3,815
Production of IL-2 (Jurkat cells; 48 Hours): 10,061
Production of IL-2 (LBRM-33 Cells; 24 Hours): 28,774
Production of IL-2 (LBRM-33 Cells; 48 Hours): 28,880
